The structures appear in SMILES notation. pIC50: −log10 of the molar value.

For the assay, the target named is T1, MAdCAM-1/α4β7 integrin (Homo sapiens, UniProt P13612+P26010).
T1 construct: a human B-cell line known to express α4β7 integrin; endogenous in cells; host or cells: RPMI-8866 (human B-cell line)
T1 sequence (P13612 34-1032): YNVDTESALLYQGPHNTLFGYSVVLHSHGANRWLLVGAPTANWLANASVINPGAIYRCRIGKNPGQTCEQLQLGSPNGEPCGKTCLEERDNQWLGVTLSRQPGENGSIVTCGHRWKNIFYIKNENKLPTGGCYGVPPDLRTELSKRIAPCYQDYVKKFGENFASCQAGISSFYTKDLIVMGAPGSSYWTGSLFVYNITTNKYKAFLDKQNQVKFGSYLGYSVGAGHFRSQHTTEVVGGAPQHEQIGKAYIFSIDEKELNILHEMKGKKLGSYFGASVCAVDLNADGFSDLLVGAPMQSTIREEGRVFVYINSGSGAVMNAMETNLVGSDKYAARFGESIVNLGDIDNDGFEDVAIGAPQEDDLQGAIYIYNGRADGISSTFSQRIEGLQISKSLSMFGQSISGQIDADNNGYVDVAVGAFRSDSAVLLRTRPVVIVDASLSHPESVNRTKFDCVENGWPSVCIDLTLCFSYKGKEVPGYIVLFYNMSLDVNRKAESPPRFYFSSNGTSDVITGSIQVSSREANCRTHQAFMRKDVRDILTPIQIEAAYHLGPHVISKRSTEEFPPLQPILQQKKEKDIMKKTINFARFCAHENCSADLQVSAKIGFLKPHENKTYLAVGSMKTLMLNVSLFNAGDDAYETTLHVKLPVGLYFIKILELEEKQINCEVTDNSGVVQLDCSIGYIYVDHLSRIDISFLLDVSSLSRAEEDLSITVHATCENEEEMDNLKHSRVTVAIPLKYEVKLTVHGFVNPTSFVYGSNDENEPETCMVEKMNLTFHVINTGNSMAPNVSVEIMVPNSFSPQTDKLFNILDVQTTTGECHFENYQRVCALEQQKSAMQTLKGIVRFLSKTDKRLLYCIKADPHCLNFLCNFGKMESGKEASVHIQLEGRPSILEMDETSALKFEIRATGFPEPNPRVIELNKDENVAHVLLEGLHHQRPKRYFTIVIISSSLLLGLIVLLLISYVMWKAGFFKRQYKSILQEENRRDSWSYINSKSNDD
T1 sequence (P26010 20-798): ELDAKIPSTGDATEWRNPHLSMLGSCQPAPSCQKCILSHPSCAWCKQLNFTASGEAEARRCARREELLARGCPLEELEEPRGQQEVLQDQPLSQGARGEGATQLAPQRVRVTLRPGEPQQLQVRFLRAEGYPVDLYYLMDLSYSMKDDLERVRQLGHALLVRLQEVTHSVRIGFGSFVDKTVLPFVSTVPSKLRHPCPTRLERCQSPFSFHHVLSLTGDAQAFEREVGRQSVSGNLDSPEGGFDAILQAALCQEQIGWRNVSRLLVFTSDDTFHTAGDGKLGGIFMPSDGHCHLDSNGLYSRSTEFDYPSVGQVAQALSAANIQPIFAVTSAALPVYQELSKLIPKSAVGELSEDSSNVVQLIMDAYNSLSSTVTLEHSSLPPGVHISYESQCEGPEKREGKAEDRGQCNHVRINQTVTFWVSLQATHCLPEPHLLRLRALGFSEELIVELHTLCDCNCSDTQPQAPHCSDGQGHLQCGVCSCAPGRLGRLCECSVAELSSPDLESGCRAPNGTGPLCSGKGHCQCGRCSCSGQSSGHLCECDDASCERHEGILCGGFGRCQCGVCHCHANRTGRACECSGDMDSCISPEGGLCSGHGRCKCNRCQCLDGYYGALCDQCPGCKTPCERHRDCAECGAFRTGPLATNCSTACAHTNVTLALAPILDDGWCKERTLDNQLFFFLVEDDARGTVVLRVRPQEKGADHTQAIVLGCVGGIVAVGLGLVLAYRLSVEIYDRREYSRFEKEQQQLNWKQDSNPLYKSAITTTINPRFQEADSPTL
The assay is described as follows: Evaluation test (1) for MAdCAM-1/α4β7 integrin binding inhibitory activity in the presence of serum (RPMI-8866 cell binding to MAdCAM-1/Fc). The note with it: RPMI-8866 cells, recombinant mouse MAdCAM-1/Fc, human serum at final concentration of 50%; read-out: α4β7 Serum Activity rank when α4β7 serum was added. Type of assay: cell-based. On the procedure: The selectivity was determined by dividing the IC50 value in the evaluation test for VCAM-1/α4β1 integrin binding inhibitory activity by the IC50 value in the evaluation test for MAdCAM-1/α4β7 integrin binding inhibitory activity. • (3) Evaluation Test (1) for MAdCAM-1/α4β7 Integrin Binding Inhibitory Activity in the Presence of Serum
The ability of test substances to inhibit the binding of RPMI-8866 cell line, a human B-cell line known to express α4β7 integrin, to MAdCAM-1 was examined.
A 96-well microtiter plate was coated overnight at 4° C. with a recombinant mouse MAdCAM-1/Fc (R&D systems) solution diluted with the buffer A (carbonate buffer, pH 9.6). After washing once with PBS, 150 μL/well of Block Ace (manufactured by Snow Brand Milk Products Co., Ltd.) was added, and it was incubated at room temperature for 2 hours. After removal, it was washed once with PBS.
100 μL of each of test substances and RPMI-8866 cells diluted with a binding buffer solution (DMEM containing 40 mM HEPES, 0.2% BSA, and 4 mM MnCl2) to various concentrations was added to the plate coated with MAdCAM-1/Fc, so that human serum was contained at a final concentration of 50%, and it was incubated at 30° C. for 15 minutes to 60 minutes. After the cells were bound to the wells, unbound cells were removed by washing with PBS. 50 μL/well of the buffer solution C (PBS containing 1.5% Triton X-100) was added to the plate to dissolve the bound RPMI-8866 cells. 30 μL of substrate buffer (Promega, CytoTox 96 Non-Radioactive Cytotoxicity Assay) was added to 30 μL of a cell lysate to allow a reaction for 30 minutes at room temperature in a dark place. 30 μL of stop solution (Promega, CytoTox 96 Non-Radioactive Cytotoxicity Assay) was added thereto to determine the absorbance at 490 nm using a plate reader. The absorbance was obtained herein by detecting the activity of lactate dehydrogenase (LDH) eluted in a supernatant of each well, that is, the absorbance is proportional to the number of RPMI-8866 cells remaining on the plate by being bound to MAdCAM-1. The test was duplicated, and the cell binding rate at various concentrations with the absorbance of the well containing no test substance being taken as 100% was determined, to calculate the concentration IC50 at which 50% of binding was inhibited.
Regarding `Cc1c(-c2ccc(C[C@H](NC(=O)c3cc(F)c(NS(=O)(=O)c4ccc(-c5cnc(C6CCOCC6)nc5)cc4)cc3F)C(=O)O)cc2)c(=O)n(C)c(=O)n1C` [Example 86, (2S)-2-[[2,5-Difluoro-4-[[4-(2-tetrahydropyran-4-ylpyrimidin-5-yl)phenyl]sulfonylamino]benzoyl]amino]-3-[4-(1,3,4-trimethyl-2,6-dioxopyrimidin-5-yl)phenyl]propanoic acid], the pIC50 is 7.30 to 8.00.
Consider `Cc1c(-c2ccc(C[C@H](NC(=O)c3cc(F)c(NS(=O)(=O)c4ccc(C5CCOCC5)cc4)cc3F)C(=O)O)cc2)c(=O)n(C)c(=O)n1C` [Example 87, (2S)-2-[[2,5-Difluoro-4-[(4-tetrahydropyran-4-ylphenyl)sulfonylamino]benzoyl]amino]-3-[4-(1,3,4-trimethyl-2,6-dioxopyrimidin-5-yl)phenyl]propanoic acid], for which the pIC50 is under 6.70.
The result for `Cc1c(-c2ccc(C[C@H](NC(=O)c3cc(F)c(NS(=O)(=O)c4ccc(-c5cnc(C(C)C)nc5)cc4)cc3F)C(=O)O)cc2)c(=O)n(C)c(=O)n1C` [Example 88] reads 6.70 to 7.30; that for `Cc1c(-c2ccc(C[C@H](NC(=O)c3cc(F)c(NS(=O)(=O)c4ccc(-c5cnc(C6CCOCC6)nc5)cc4)cc3F)C(=O)O)nc2)c(=O)n(C)c(=O)n1C` [Example 89, (2S)-2-[[2,5-Difluoro-4-[[4-(2-tetrahydropyran-4-ylpyrimidin-5-yl)phenyl]sulfonylamino]benzoyl]amino]-3-[5-(1,3,4-trimethyl-2,6-dioxopyrimidin-5-yl)-2-pyridyl]propanoic acid], under 6.70.

Source of the values: patent US9822110B2, “Sulfonamide derivative and pharmaceutical use thereof” (EA Pharma Co., Ltd., priority 2013, dated 2017).
